Key:
[1] = target: T1, KRas^WT (Homo sapiens, UniProt P01116); assay: KRas binding assay (TR-FRET tracer displacement), KRas WT; conditions: TR-FRET tracer displacement, KRas WT
T1 construct: Biotinylated KRas (corresponding to amino acids 1-169, produced at Accelegan Inc.); biotin (biotinylated); purchased Accelegan Inc

[2] = target: T2, KRas^G12A (Homo sapiens, UniProt P01116, G12A); assay: KRas binding assay (TR-FRET tracer displacement), KRas G12A; conditions: TR-FRET tracer displacement, KRas G12A
T2 construct: Biotinylated KRas (corresponding to amino acids 1-169, produced at Accelegan Inc.); biotin (biotinylated); purchased Accelegan Inc

[3] = target: T3, KRas^G12C (Homo sapiens, UniProt P01116, G12C); assay: KRas binding assay (TR-FRET tracer displacement), KRas G12C; conditions: TR-FRET tracer displacement, KRas G12C
T3 construct: Biotinylated KRas (corresponding to amino acids 1-169, produced at Accelegan Inc.); biotin (biotinylated); purchased Accelegan Inc

[4] = target: T4, KRas^G12D (Homo sapiens, UniProt P01116, G12D); assay: KRas binding assay (TR-FRET tracer displacement), KRas G12D
T4 construct: Biotinylated KRas (corresponding to amino acids 1-169, produced at Accelegan Inc.); biotin (biotinylated); purchased Accelegan Inc

[5] = target: T5, KRas^G12R (Homo sapiens, UniProt P01116, G12R); assay: KRas binding assay (TR-FRET tracer displacement), KRas G12R
T5 construct: Biotinylated KRas (corresponding to amino acids 1-169, produced at Accelegan Inc.); biotin (biotinylated); purchased Accelegan Inc

[6] = target: T6, KRas^G12S (Homo sapiens, UniProt P01116, G12S); assay: KRas binding assay (TR-FRET tracer displacement), KRas G12S; conditions: TR-FRET tracer displacement, KRas G12S
T6 construct: Biotinylated KRas (corresponding to amino acids 1-169, produced at Accelegan Inc.); biotin (biotinylated); purchased Accelegan Inc

[7] = target: T7, KRas^G12V (Homo sapiens, UniProt P01116, G12V); assay: KRas binding assay (TR-FRET tracer displacement), KRas G12V
T7 construct: Biotinylated KRas (corresponding to amino acids 1-169, produced at Accelegan Inc.); biotin (biotinylated); purchased Accelegan Inc

[8] = target: T8, KRas^G13D (Homo sapiens, UniProt P01116, G13D); assay: KRas binding assay (TR-FRET tracer displacement), KRas G13D; conditions: TR-FRET tracer displacement, KRas G13D
T8 construct: Biotinylated KRas (corresponding to amino acids 1-169, produced at Accelegan Inc.); biotin (biotinylated); purchased Accelegan Inc

[9] = target: T9, KRas^Q61H (Homo sapiens, UniProt P01116, Q61H); assay: KRas binding assay (TR-FRET tracer displacement), KRas Q61H; conditions: TR-FRET tracer displacement, KRas Q61H
T9 construct: Biotinylated KRas (corresponding to amino acids 1-169, produced at Accelegan Inc.); biotin (biotinylated); purchased Accelegan Inc

[10] = test system: KRas-mediated phosphorylation of ERK in MKN1 cells; assay: Inhibition of KRas-mediated phosphorylation of ERK (Cisbio HTRF pERK), MKN1 cells; assay type: cell-based; conditions: Homo sapiens, MKN-1
Method in brief: (§1)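 HTRF pERK read-out; 6,000 cells/well, RPMI_10% FBS, overnight 37° C./5% CO2; 4 h covered incubation at RT before reading.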

[11] = test system: KRas-mediated phosphorylation of ERK in PSN1 cells; assay: Inhibition of KRas-mediated phosphorylation of ERK (Cisbio HTRF pERK), PSN1 cells; assay type: cell-based; conditions: Homo sapiens
Method in brief: as §1

[12] = test system: KRas-mediated phosphorylation of ERK in AsPC-1 cells; assay: Inhibition of KRas-mediated phosphorylation of ERK (Cisbio HTRF pERK), AsPC-1 cells; assay type: cell-based; conditions: Homo sapiens, ASPC1, AsPC-1 cells; HTRF pERK
Method in brief: (§2)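 Phosphorylated ERK was quantified by HTRF using d2-conjugate and Cryptate antibodies added to lysates for 2 hrs at room temperature.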

[13] = test system: KRas-mediated phosphorylation of ERK in H727 cells; assay: Inhibition of KRas-mediated phosphorylation of ERK (Cisbio HTRF pERK), H727 cells; assay type: cell-based; conditions: Homo sapiens, NCI-H727, H727 cells; HTRF pERK
Method in brief: as §2

[14] = test system: KRas-mediated phosphorylation of ERK in A549 cells; assay: Inhibition of KRas-mediated phosphorylation of ERK (Cisbio HTRF pERK), A549 cells; assay type: cell-based; conditions: Homo sapiens, HTRF pERK
Method in brief: (§3)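 Min control wells contained 0.2 uM Trametinib, while test compounds ran as 10 doses (3-fold, top 10 uM; 0.8% DMSO final) on cells for 3 hrs. After 40 mins lysis at 4° C, lysates were probed with HTRF antibodies for 2 hrs at room temperature.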

[15] = test system: KRas-mediated phosphorylation of ERK in H460 cells; assay: Inhibition of KRas-mediated phosphorylation of ERK (Cisbio HTRF pERK), H460 cells; assay type: cell-based; conditions: Homo sapiens, NCI-H460, HTRF pERK
Method in brief: as §2

[16] = test system: KRas-mediated phosphorylation of ERK in HCT116 cells; assay: Inhibition of KRas-mediated phosphorylation of ERK (Cisbio HTRF pERK), HCT116 cells; assay type: cell-based; conditions: Homo sapiens, HCT-116, HTRF pERK
Method in brief: as §3

[17] = test system: KRas-mediated phosphorylation of ERK in H358 cells; assay: Inhibition of KRas-mediated phosphorylation of ERK (Cisbio HTRF pERK), H358 cells; assay type: cell-based; conditions: Homo sapiens, NCI-H358, HTRF pERK
Method in brief: as §2

T9 sequence (P01116 1-169 isoform P01116-2 Q61H): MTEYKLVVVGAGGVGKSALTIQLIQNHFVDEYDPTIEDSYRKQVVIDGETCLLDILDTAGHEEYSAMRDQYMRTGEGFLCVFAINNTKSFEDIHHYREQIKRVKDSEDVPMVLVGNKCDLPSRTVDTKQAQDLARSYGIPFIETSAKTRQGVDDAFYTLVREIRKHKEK
T7 sequence (P01116 1-169 isoform P01116-2 G12V): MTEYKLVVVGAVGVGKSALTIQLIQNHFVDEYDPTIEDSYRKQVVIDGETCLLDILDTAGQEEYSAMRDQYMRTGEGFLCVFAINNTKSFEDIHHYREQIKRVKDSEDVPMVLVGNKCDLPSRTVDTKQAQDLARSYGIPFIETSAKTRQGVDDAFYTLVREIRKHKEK
T4 sequence (P01116 1-169 isoform P01116-2 G12D): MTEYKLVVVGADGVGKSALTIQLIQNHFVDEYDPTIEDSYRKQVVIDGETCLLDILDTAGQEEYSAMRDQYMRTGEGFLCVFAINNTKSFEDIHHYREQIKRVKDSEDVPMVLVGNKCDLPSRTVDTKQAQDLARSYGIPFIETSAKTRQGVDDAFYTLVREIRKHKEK
T1 sequence (P01116 1-169 isoform P01116-2): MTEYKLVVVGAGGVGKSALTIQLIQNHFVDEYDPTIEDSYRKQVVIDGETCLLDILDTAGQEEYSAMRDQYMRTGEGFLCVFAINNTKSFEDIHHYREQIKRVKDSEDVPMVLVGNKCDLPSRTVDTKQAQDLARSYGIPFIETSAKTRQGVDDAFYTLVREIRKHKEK
T2 sequence (P01116 1-169 isoform P01116-2 G12A): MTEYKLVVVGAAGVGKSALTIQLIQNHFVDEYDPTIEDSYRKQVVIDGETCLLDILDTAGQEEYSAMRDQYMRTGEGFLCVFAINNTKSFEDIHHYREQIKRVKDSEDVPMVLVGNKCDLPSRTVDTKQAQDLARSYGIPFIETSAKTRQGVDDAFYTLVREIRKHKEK
T3 sequence (P01116 1-169 isoform P01116-2 G12C): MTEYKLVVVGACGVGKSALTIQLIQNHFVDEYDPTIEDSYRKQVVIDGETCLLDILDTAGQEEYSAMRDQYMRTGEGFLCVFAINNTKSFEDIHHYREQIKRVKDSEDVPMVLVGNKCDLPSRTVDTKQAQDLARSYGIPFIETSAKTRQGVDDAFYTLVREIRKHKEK
T6 sequence (P01116 1-169 isoform P01116-2 G12S): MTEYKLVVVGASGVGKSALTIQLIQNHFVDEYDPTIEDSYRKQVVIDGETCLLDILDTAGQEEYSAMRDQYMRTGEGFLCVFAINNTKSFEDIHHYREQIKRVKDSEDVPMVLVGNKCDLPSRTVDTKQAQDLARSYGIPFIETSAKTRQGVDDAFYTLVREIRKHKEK
T8 sequence (P01116 1-169 isoform P01116-2 G13D): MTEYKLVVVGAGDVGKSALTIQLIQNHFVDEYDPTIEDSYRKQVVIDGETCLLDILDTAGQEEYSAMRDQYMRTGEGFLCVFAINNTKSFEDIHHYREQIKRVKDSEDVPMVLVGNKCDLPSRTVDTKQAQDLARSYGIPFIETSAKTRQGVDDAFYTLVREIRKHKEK
T5 sequence (P01116 1-169 isoform P01116-2 G12R): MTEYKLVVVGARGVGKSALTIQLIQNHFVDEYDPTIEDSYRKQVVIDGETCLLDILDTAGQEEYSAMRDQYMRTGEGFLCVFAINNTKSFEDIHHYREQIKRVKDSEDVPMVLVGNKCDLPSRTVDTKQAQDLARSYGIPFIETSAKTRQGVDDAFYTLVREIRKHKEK

Row | SMILES | IC50 [1] | IC50 [2] | IC50 [3] | IC50 [4] | IC50 [5] | IC50 [6] | IC50 [7] | IC50 [8] | IC50 [9] | IC50 [10] | IC50 [11] | IC50 [12] | IC50 [13] | IC50 [14] | IC50 [15] | IC50 [16] | IC50 [17]
1 | O=C1NC(=O)C2CC(c3nc(OCC45CCCN4CCC5)nc4c(F)c(-c5cccc6cccc(F)c56)ncc34)=CC12 (stereo not shown) [Example 525, 5-(8-fluoro-7-(8-fluoronaphthalen-1-yl)-2-((tetrahydro-1H-pyrrolizin-7a(5H)-yl)methoxy)pyrido[4,3-d]pyrimidin-4-yl)-4,6a-dihydrocyclopenta[c]pyrrole-1,3(2H,3aH)-dione] | > 100000 nM | 93800 nM | > 100000 nM | 50700 nM | 45400 nM | > 100000 nM | 55900 nM | > 100000 nM | > 100000 nM |  |  |  |  |  |  |  | 
2 | O[C@@H]1C[C@H]2C[C@@H]1CN(c1nc(OC[C@@]34CCCN3C[C@H](F)C4)nc3c(F)c(-c4cccc5ccccc45)ncc13)C2 [Example 724, (1R,5R,6R)-3-(8-fluoro-2-(((2R,7aS)-2-fluorohexahydro-1H-pyrrolizin-7a-yl)methoxy)-7-(naphthalen-1-yl)pyrido[4,3-d]pyrimidin-4-yl)-3-azabicyclo[3.2.1]octan-6-ol] | 419 nM | 301 nM | 185 nM | 1590 nM | 720 nM | 170 nM | 404 nM | 585 nM | 612 nM |  |  |  |  |  |  |  | 
3 | Cc1cc2[nH]nnc2c(-c2ncc3c(N4CCC[C@@](C)(O)C4)nc(OC[C@@]45CCCN4C[C@H](F)C5)nc3c2F)c1C [Example 821, (3R)-1-(7-(5,6-dimethyl-1H-benzo[d][1,2,3]triazol-4-yl)-8-fluoro-2-(((2R,7aS)-2-fluorotetrahydro-1H-pyrrolizin-7a(5H)-yl)methoxy)pyrido[4,3-d]pyrimidin-4-yl)-3-methylpiperidin-3-ol] | 151 nM | 137 nM | 146 nM | 3890 nM | 12000 nM | 121 nM | 5850 nM | 146 nM | 196 nM |  |  |  |  |  |  |  | 
4 | Cc1cc2[nH]nnc2c(-c2ncc3c(N4CCOC[C@@](C)(O)C4)nc(OCC45CCCN4CCC5)nc3c2F)c1C [Example 822, (6S)-4-(7-(5,6-dimethyl-1H-benzo[d][1,2,3]triazol-4-yl)-8-fluoro-2-((tetrahydro-1H-pyrrolizin-7a(5H)-yl)methoxy)pyrido[4,3-d]pyrimidin-4-yl)-6-methyl-1,4-oxazepan-6-ol] | 5420 nM | 4980 nM | 4080 nM | 2180 nM | 9670 nM | 4660 nM | 3430 nM | 5410 nM | 5660 nM |  |  |  |  |  |  |  | 
5 | Cc1cc2[nH]nnc2c(-c2ncc3c(N4C[C@@H]5C[C@H](C4)[C@H](O)C5)nc(OCC45CCCN4CCC5)nc3c2F)c1C [Example 832, (1R,5R,6R)-3-(7-(5,6-dimethyl-1H-benzo[d][1,2,3]triazol-4-yl)-8-fluoro-2-((tetrahydro-1H-pyrrolizin-7a(5H)-yl)methoxy)pyrido[4,3-d]pyrimidin-4-yl)-3-azabicyclo[3.2.1]octan-6-ol] | 4590 nM | 3770 nM | 3200 nM | 17100 nM | 6410 nM | 2940 nM | 4550 nM | 3880 nM | 4610 nM |  |  |  |  |  |  |  | 

Now from value to molecule:

Row | IC50 [1] | IC50 [2] | IC50 [3] | IC50 [4] | IC50 [5] | IC50 [6] | IC50 [7] | IC50 [8] | IC50 [9] | IC50 [10] | IC50 [11] | IC50 [12] | IC50 [13] | IC50 [14] | IC50 [15] | IC50 [16] | IC50 [17] | SMILES
6 | 1400 nM | 634 nM | 591 nM | 22900 nM | 76200 nM | 1510 nM | 52000 nM | 470 nM | 2130 nM |  |  |  |  |  |  |  |  | Cc1cc2sncc2c(-c2ncc3c(N4CCC[C@@](C)(O)C4)nc(OCC45CCCN4CCC5)nc3c2F)c1C [Example 820, (3R)-1-(7-(5,6-dimethylbenzo[d]isothiazol-4-yl)-8-fluoro-2-((tetrahydro-1H-pyrrolizin-7a(5H)-yl)methoxy)pyrido[4,3-d]pyrimidin-4-yl)-3-methylpiperidin-3-ol]
7 | 1420 nM | 1430 nM | 1300 nM | 2220 nM | 1380 nM | 1370 nM | 922 nM | 1270 nM | 1390 nM |  |  |  |  |  |  |  |  | Cc1cc2[nH]nnc2c(-c2ncc3c(N4CCCC5(C4)NC(=O)NC5=O)nc(OCC45CCCN4CCC5)nc3c2F)c1C (stereo not shown) [Example 823, 7-(7-(5,6-dimethyl-1H-benzo[d][1,2,3]triazol-4-yl)-8-fluoro-2-((tetrahydro-1H-pyrrolizin-7a(5H)-yl)methoxy)pyrido[4,3-d]pyrimidin-4-yl)-1,3,7-triazaspiro[4.5]decane-2,4-dione]
8 | 3830 nM | 5130 nM | 4490 nM | 1080 nM | 9160 nM | 1860 nM | 3540 nM | 2820 nM | 3670 nM |  |  |  |  |  |  |  |  | Cc1cc2[nH]nnc2c(-c2ncc3c(N4CC5C(=O)NC(=O)C5C4)nc(OCC45CCCN4CCC5)nc3c2F)c1C (stereo not shown) [Example 833, 5-(7-(5,6-dimethyl-1H-benzo[d][1,2,3]triazol-4-yl)-8-fluoro-2-((tetrahydro-1H-pyrrolizin-7a(5H)-yl)methoxy)pyrido[4,3-d]pyrimidin-4-yl)tetrahydropyrrolo[3,4-c]pyrrole-1,3(2H,3aH)-dione]
9 | 3780 nM | 2380 nM | 1630 nM | 153 nM | 2910 nM | 1260 nM | 743 nM | 4060 nM | 3810 nM |  |  |  |  |  |  |  |  | Cc1cc2[nH]nnc2c(-c2ncc3c(N4CCCn5nc(C(=O)N(C)C)cc5C4)nc(OCC45CCCN4CCC5)nc3c2F)c1C [Example 839, 5-(7-(5,6-dimethyl-1H-benzo[d][1,2,3]triazol-4-yl)-8-fluoro-2-((tetrahydro-1H-pyrrolizin-7a(5H)-yl)methoxy)pyrido[4,3-d]pyrimidin-4-yl)-N,N-dimethyl-5,6,7,8-tetrahydro-4H-pyrazolo[1,5-a][1,4]diazepine-2-carboxamide]
10 | 2820 nM | 2230 nM | 2060 nM | 1190 nM | 4270 nM | 2510 nM | 2200 nM | 2470 nM | 2830 nM |  |  |  |  |  |  |  |  | Cc1cc2[nH]nnc2c(-c2ncc3c(N4CCCC5(CNC(=O)N5)C4)nc(OCC45CCCN4CCC5)nc3c2F)c1C (stereo not shown) [Example 856, 7-(7-(5,6-dimethyl-1H-benzo[d][1,2,3]triazol-4-yl)-8-fluoro-2-((tetrahydro-1H-pyrrolizin-7a(5H)-yl)methoxy)pyrido[4,3-d]pyrimidin-4-yl)-1,3,7-triazaspiro[4.5]decan-2-one]
11 | < 2 nM |  | < 2 nM | < 2 nM |  | < 2 nM | < 2 nM |  |  | 0.9 nM | 2280 nM | 58 nM | 59 nM | 17 nM | 15 nM | 72 nM | 5 nM | CCc1c(F)ccc2cc(O)cc(-c3ncc4c(N5C[C@@H]6C[C@H](C5)[C@H](O)C6)nc(OCC56CCCN5CC5(CC5)C6)nc4c3F)c12 (stereo partly drawn) [Example 931, (1R,5R,6R)-3-(2-((dihydro-1′H,3′H-spiro[cyclopropane-1,2′-pyrrolizin]-7a′ (5′H)-yl)methoxy)-7-(8-ethyl-7-fluoro-3-hydroxynaphthalen-1-yl)-8-fluoropyrido[4,3-d]pyrimidin-4-yl)-3-azabicyclo[3.2.1]octan-6-ol]

Source: US20260015350A1, “AZAQUINAZOLINE PAN-KRAS INHIBITORS” (Mirati Therapeutics, Inc., priority 2022, published 2026)
